{"source": "patent US9133170B2", "about": "“Inhibitors of HCV NS5A” (priority 2011, dated 2015)", "system": "GT-1a pRLuc H77 1b 75 S/I subgenomic replicon cell line", "test": "HCV GT-1a subgenomic replicon Renilla luciferase reporter assay", "format": "cell-based", "conditions": "Hepatitis C virus, GT1A, Huh-7, 72 h, read-out: GT-1a-IC50", "text": "Determination of compounds HCV GT1b inhibitory replicon activity using the replicon luciferase reporter assay\nThe 2209-23 cell line was developed at Roche by stable transfection of the hepatoma cell line Huh-7 with a GT-1b Con1 subgenomic bicistronic replicon as previously described. Subgenomic replicon cell line was established in cured Huh7 cells, obtained from R. Bartenschlager (J Virol. 2003 March; 77 (5):3007-19) The GT-1a H77 subgenomic replicon vector pRLuc H77 1b 75 S/I, was created by replacing the non structural region of the GT-1b Con1 subgenomic replicon by the one of the H77 strain, except for the first 75 amino acids of the NS3 protein that are from GT-1b Con1 strain. (J Virol. 2001 77:5352-59) The GT-1a pRLuc H77 1b 75 S/I subgenomic replicon cell line was established in cured Huh7 cells, obtained from R. Bartenschlager (J Virol. 2003 March; 77 (5):3007-19).\nAll the subgenomic replicon cell lines were cultured in Dulbecco's Modified Eagle Medium (DMEM-Glutamax™-I; Invitrogen Cat #10569-010). The medium was supplemented with 10% Fetal Bovine Serum (Invitrogen Cat #10082-147), 1% penicillin/streptomycin (Mediatech Cat # 30-002-CI) and 500 μg/ml of G418 (Mediatech Cat #30-234-CI). Cells were maintained at 37° C. in a humidified 5% CO2 atmosphere.\n2209-23 cells were plated at a cell density of 5000 cells per well in 96 well plates (Becton Dickinson, Cat #35 3296). Cells were plated in 90 μl of Dulbecco's Modified Eagle Medium (DMEM-Glutamax™-I), (Invitrogen Cat #10569-010) medium was supplemented with 5% Fetal Bovine Serum (Invitrogen Cat #10082-147), 1% penicillin/streptomycin (Mediatech Cat #30-002-CI). The pRluc H77 1b 75 S/I cells were plated in 96-well plate at 3000 cells/well in DMEM-Glutamax™-I containing 5% FBS and 1% penicillin/streptomycin in 90 μl final volume. Cells were allowed to equilibrate for 24 hours at 37° C. and 5% CO2 at which time compounds were added. Compounds (or medium as a control) were added 24 hours post-plating in 3 fold dilutions at a final DMSO concentration of 1% in 10 ul volume. Renilla luciferase reporter signal was read 72 hours after addition of compounds using the Renilla Luciferase Assay System (Promega, cat #E2820). EC50 values were defined as the compound concentration at which a 50% reduction in the levels of renilla luciferase reporter was observed as compared to control samples in the absence of compound and was determined by non-linear fitting of compound dose-response data. The EC50 was approximated if maximum percentage inhibition was less than 90% and more than 70%.", "data": [{"smiles": "COC(=O)N[C@H]1CCc2cccc3c2N(C1=O)[C@H](C(=O)N1CCC[C@H]1C(=O)Nc1ccc(-c2ccc(-c4cnc([C@@H]5CCCN5C(=O)[C@@H](NC(=O)OC)C(C)C)[nH]4)cc2)cc1)C3", "note": "[Compound I-1, {(2S,5S)-2-[(S)-2-(4′-{2-[(S)-1-((S)-2-Methoxycarbonylamino-3-methyl-butyryl)-pyrrolidin-2-yl]-3H-imidazol-4-yl}-biphenyl-4-ylcarbamoyl)-pyrrolidine-1-carbonyl]-4-oxo-1,2,4,5,6,7-hexahydro-azepino[3,2,1-hi]indol-5-yl}-carbamic acid methyl ester]", "values": [{"measurement": "IC50", "result": 8.38, "unit": "nM"}]}, {"smiles": "COC(=O)N[C@H]1CCC(=O)N2CCC[C@@H](C(=O)N3CCC[C@H]3C(=O)Nc3ccc(-c4ccc(-c5cnc([C@@H]6CCCN6C(=O)[C@@H](NC(=O)OC)C(C)C)[nH]5)cc4)cc3)N2C1=O", "note": "[Compound I-2, {(4S,7S)-4-[(S)-2-(4′-{2-[(S)-1-((S)-2-Methoxycarbonylamino-3-methyl-butyryl)-pyrrolidin-2-yl]-3H-imidazol-4-yl}-biphenyl-4-ylcarbamoyl)-pyrrolidine-1-carbonyl]-6,10-dioxo-octahydro-pyridazino[1,2-a][1,2]diazepin-7-yl}-carbamic acid methyl ester]", "values": [{"measurement": "IC50", "result": 190, "unit": "nM"}]}, {"smiles": "COC(=O)N[C@H]1CCc2cccc3c2N(C1=O)[C@H](C(=O)N1CCC[C@H]1C(=O)Nc1ccc(-c2ccc(-c4cnc([C@@H]5CC(F)(F)CN5C(=O)[C@@H](NC(=O)OC)C(C)C)[nH]4)cc2)cc1)C3", "note": "[Compound I-3, {(2S,5S)-2-[(S)-2-(4′-{2-[(S)-1-((S)-2-Methoxycarbonylamino-3-methyl-butyryl)-4,4-difluoropyrrolidin-2-yl]-3H-imidazol-4-yl}-biphenyl-4-ylcarbamoyl)-pyrrolidine-1-carbonyl]-4-oxo-1,2,4,5,6,7-hexahydro-azepino[3,2,1-hi]indol-5-yl}-carbamic acid methyl ester]", "values": [{"measurement": "IC50", "result": 147, "unit": "nM"}]}, {"smiles": "COC(=O)N[C@H]1CCc2cccc3c2N(C1=O)[C@H](C(=O)N1CCC[C@H]1C(=O)Nc1ccc(-c2ccc(-c4[nH]c([C@@H]5CCCN5C(=O)[C@@H](NC(=O)OC)C(C)C)nc4Cl)cc2)cc1)C3", "note": "[Compound I-4, {(2S,5S)-2-[(S)-2-(4′-{5-Chloro-2-[(S)-1-((S)-2-methoxycarbonylamino-3-methyl-butyryl)-pyrrolidin-2-yl]-3H-imidazol-4-yl}-biphenyl-4-ylcarbamoyl)-pyrrolidine-1-carbonyl]-4-oxo-1,2,4,5,6,7-hexahydro-azepino[3,2,1-hi]indol-5-yl}-carbamic acid methyl ester]", "values": [{"measurement": "IC50", "result": 1.38, "unit": "nM"}]}, {"smiles": "COC(=O)N[C@H](C(=O)N1CCC[C@H]1C(=O)N1CCC[C@H]1C(=O)Nc1ccc(-c2ccc(-c3cnc([C@@H]4CCCN4C(=O)[C@@H](NC(=O)OC)C(C)C)[nH]3)cc2)cc1)C(C)C", "note": "[Compound I-5, ((S)-1-{(S)-2-[(S)-2-(4′-{2-[(S)-1-((S)-2-Methoxycarbonylamino-3-methyl-butyryl)-pyrrolidin-2-yl]-3H-imidazol-4-yl}-biphenyl-4-ylcarbamoyl)-pyrrolidine-1-carbonyl]-pyrrolidine-1-carbonyl}-2-methyl-propyl)-carbamic acid methyl ester]", "values": [{"measurement": "IC50", "result": 4.87, "unit": "nM"}]}, {"smiles": "COC(=O)N[C@H](C(=O)N1CCC[C@H]1c1ncc(-c2ccc(-c3ccc(NC(=O)[C@@H]4CCCN4C(=O)[C@@H]4CCCN4C(=O)[C@H](NC(=O)OC)c4ccccc4)cc3)cc2)[nH]1)C(C)C", "note": "[Compound I-6, [(S)-1-((S)-2-{5-[4′-({(S)-1-[(S)-1-((R)-2-Methoxycarbonylamino-2-phenyl-acetyl)-pyrrolidine-2-carbonyl]-pyrrolidine-2-carbonyl}-amino)-biphenyl-4-yl]-1H-imidazol-2-yl}-pyrrolidine-1-carbonyl)-2-methyl-propyl]-carbamic acid methyl ester]", "values": [{"measurement": "IC50", "result": 69.9, "unit": "nM"}]}]}
